# Laboratory results from ChEMBL document CHEMBL4196002, “Design, synthesis, mechanistic and histopathological studies of small-molecules of novel indole-2-carboxamides and pyrazino[1,2-a]indol-1(2H)-ones as potential anticancer agents effecting the reactive oxygen species production” (Eur J Med Chem, 2018).
# Calls of active or inactive are those of the source. The rule behind the calls is not given here.
# Experiments:
# A549 = assay: Antiproliferative activity human A549 cells after 48 hrs by propidium iodide staining-based fluorescence assay; assay type: functional, cell-based; settings: A549, 48 h
# Mus musculus [1] = assay: Inhibition of chlorpyrifos-induced fibrosis in albino mouse testis assessed as decrease in collagen in interstitium at 20 mg/kg, qd administered via oral gavage followed by chlorpyrifos challenge at 30 mins post dose by masson's trichrome staining-based light microscopic analysis; assay type: functional, organism-based
# [2] = Inhibition of ROS generation in human PMN at 0.78 ug/ml after 50 mins by luminol-based chemiluminescence assay relative to control; assay type: functional
# HT-29 = assay: Antiproliferative activity human HT-29 cells after 48 hrs by propidium iodide staining-based fluorescence assay; assay type: functional, cell-based; settings: HT-29, 48 h
# Mus musculus [3] = species on record: Mus musculus; settings: 20 mg/kg
# Description: Inhibition of chlorpyrifos-induced testicular damage in albino mouse assessed as appearance of separated semniferous tubules by narrow interstitium without exudate at 20 mg/kg, qd administered via oral gavage followed by chlorpyrifos challenge at 30 mins post dose by haematoxylin and eosin staining-based light microscopic analysis
# Mus musculus [4] = species on record: Mus musculus; settings: 20 mg/kg; remark: listed apart in the source
# Description: Inhibition of chlorpyrifos-induced testicular damage in albino mouse assessed as absence of sloughed cells at 20 mg/kg, qd administered via oral gavage followed by chlorpyrifos challenge at 30 mins post dose by haematoxylin and eosin staining-based light microscopic analysis
# [5] = Antioxidant activity assessed as DPPH radical scavenging activity at 10 uM after 30 mins dark incubation; assay type: functional
# PC-3 = assay: Antiproliferative activity human PC3 cells after 48 hrs by propidium iodide staining-based fluorescence assay; assay type: functional, cell-based; settings: PC-3, 48 h
# [6] = Cytotoxicity against human MCF10A cells assessed as cell viability at 50 uM after 96 hrs by MTT assay relative to control; assay type: cell-based, MCF-10A; settings: read-out: Activity
# MCF7 [7] = assay: Antiproliferative activity human MCF7 cells after 48 hrs by propidium iodide staining-based fluorescence assay; assay type: functional, cell-based; settings: MCF7, 48 h
# [8] = Inhibition of ROS generation in human PMN at 3.13 ug/ml after 50 mins by luminol-based chemiluminescence assay relative to control; assay type: functional
# [9] = Inhibition of ROS generation in human PMN at 1.56 ug/ml after 50 mins by luminol-based chemiluminescence assay relative to control; assay type: functional
# MIA PaCa-2 = assay: Antiproliferative activity human MIAPaCa2 cells after 48 hrs by propidium iodide staining-based fluorescence assay; assay type: functional, cell-based; settings: MIA PaCa-2, 48 h
# [10] = target: Serine/threonine-protein kinase B-raf (Mus musculus, UniProt P28028, V600E); assay: Inhibition of mouse full-length GST-tagged BRAF V600E mutant using recombinant human full length N-terminal His-tagged MEK1 as substrate preincubated for 60 mins followed by substrate addition and measured after 25 mins by ELISA
# Mus musculus [11] = species on record: Mus musculus; settings: 20 mg/kg; remark: listed apart in the source
# Description: Inhibition of chlorpyrifos-induced testicular damage in albino mouse assessed as appearance of spermatozoa tails in narrow lumina at 20 mg/kg, qd administered via oral gavage followed by chlorpyrifos challenge at 30 mins post dose by haematoxylin and eosin staining-based light microscopic analysis
# [12] = Inhibition of ROS generation in human PMN at 6.25 ug/ml after 50 mins by luminol-based chemiluminescence assay relative to control; assay type: functional
# Mus musculus [13] = assay: Inhibition of chlorpyrifos-induced fibrosis in albino mouse testis assessed as thin fibrous capsule at 20 mg/kg, qd administered via oral gavage followed by chlorpyrifos challenge at 30 mins post dose by masson's trichrome staining-based light microscopic analysis; assay type: functional, organism-based
# Mus musculus [14] = assay: Inhibition of chlorpyrifos-induced iNOS epression in albino mouse testes at 20 mg/kg, qd administered via oral gavage followed by chlorpyrifos challenge at 30 mins post dose by immunohistochemical analysis; assay type: functional, organism-based
# Tubulin (Homo sapiens) = Tubulin (Homo sapiens) (UniProt P68371+Q9H4B7+P0DPH7+P68366+Q13509+Q71U36+P04350+Q3ZCM7+P07437+P68363+Q9BQE3+Q6PEY2+Q13885+Q9BVA1+Q9BUF5); assay: Inhibition of tubulin (unknown origin) polymerization assessed as tubulin assembly rate by fluorescence assay; assay type: protein-complex assay
# Mus musculus [15] = assay: Inhibition of chlorpyrifos-induced caspase3 epression in albino mouse testes at 20 mg/kg, qd administered via oral gavage followed by chlorpyrifos challenge at 30 mins post dose by immunohistochemical analysis; assay type: functional, organism-based
# Mus musculus [16] = assay: (§1) Inhibition of chlorpyrifos-induced testicular damage in albino mouse assessed as increase in spermatogenic cell layers at 20 mg/kg, qd administered via oral gavage followed by chlorpyrifos challenge at 30 mins post dose by haematoxylin and eosin staining-based light microscopic analysis; assay type: functional, organism-based
# Mus musculus [17] = species on record: Mus musculus; settings: 20 mg/kg; remark: listed apart in the source
# Description: Inhibition of chlorpyrifos-induced testicular damage in albino mouse assessed as appearance of cellular vaculations in germinal epithelium at 20 mg/kg, qd administered via oral gavage followed by chlorpyrifos challenge at 30 mins post dose by haematoxylin and eosin staining-based light microscopic analysis
# Mus musculus [18] = species on record: Mus musculus; settings: 20 mg/kg; remark: listed apart in the source
# Description: Inhibition of chlorpyrifos-induced testicular damage in albino mouse assessed as appearance of vesicular nuclei in spermatogenic cells at 20 mg/kg, qd administered via oral gavage followed by chlorpyrifos challenge at 30 mins post dose by haematoxylin and eosin staining-based light microscopic analysis
# Homo sapiens = species on record: Homo sapiens; assay: (§2) Inhibition of ROS generation in human PMN after 50 mins by luminol-based chemiluminescence assay; assay type: functional
# [19] = as §2; assay type: functional
# [20] = Antioxidant activity assessed as DPPH radical scavenging activity at 100 uM after 30 mins dark incubation; assay type: functional
# [21] = Inhibition of ROS generation in human PMN at 12.5 ug/ml after 50 mins by luminol-based chemiluminescence assay relative to control; assay type: functional
# [22] = Antioxidant activity assessed as DPPH radical scavenging activity at 50 uM after 30 mins dark incubation; assay type: functional
# MCF7 [23] = assay: Growth inhibition of human MCF7 cells after 48 hrs by SRB assay; assay type: functional; settings: MCF7, 48 h
# MDA-MB-435 = assay: Growth inhibition of human MDA-MB-435 cells after 48 hrs by SRB assay; assay type: functional; settings: MDA-MB-435, 48 h
# Mus musculus [24] = assay: Inhibition of chlorpyrifos-induced testicular damage in albino mouse assessed as appearance of spermatozoa tails in lumina at 20 mg/kg, qd administered via oral gavage followed by chlorpyrifos challenge at 30 mins post dose by haematoxylin and eosin staining-based light microscopic analysis; assay type: functional, organism-based
# Mus musculus [25] = assay: as §1, with “appearance of well-organized” for “increase in”, “spermatogenic” for “spermatogenic cell”, “layers at different stages of spermatogenesis” for “layers”; assay type: functional, organism-based
# [26] = target: Epidermal growth factor receptor (Homo sapiens, UniProt P00533); assay: Inhibition of His6-tagged EGFR (unknown origin) cytoplasmic domain expressed in baculovirus infected Sf9 insect cells after 10 mins followed by addition of ATP-MgCl2 and measured after 1 hr by time-resolved fluorometric analysis
# Mus musculus [27] = assay: (§3) Inhibition of chlorpyrifos-induced testicular damage in albino mouse assessed as appearance of normal sertoli cells at 20 mg/kg, qd administered via oral gavage followed by chlorpyrifos challenge at 30 mins post dose by haematoxylin and eosin staining-based light microscopic analysis; assay type: functional, organism-based
# Mus musculus [28] = assay: as §3, with “absence” for “appearance”, “crowdedness of interstitial” for “normal sertoli”, “cells with relatively low exudate” for “cells”; assay type: functional, organism-based
# Chain of Serine/threonine-protein kinase B-raf (P28028 whole entry, looked up, stated change not applied): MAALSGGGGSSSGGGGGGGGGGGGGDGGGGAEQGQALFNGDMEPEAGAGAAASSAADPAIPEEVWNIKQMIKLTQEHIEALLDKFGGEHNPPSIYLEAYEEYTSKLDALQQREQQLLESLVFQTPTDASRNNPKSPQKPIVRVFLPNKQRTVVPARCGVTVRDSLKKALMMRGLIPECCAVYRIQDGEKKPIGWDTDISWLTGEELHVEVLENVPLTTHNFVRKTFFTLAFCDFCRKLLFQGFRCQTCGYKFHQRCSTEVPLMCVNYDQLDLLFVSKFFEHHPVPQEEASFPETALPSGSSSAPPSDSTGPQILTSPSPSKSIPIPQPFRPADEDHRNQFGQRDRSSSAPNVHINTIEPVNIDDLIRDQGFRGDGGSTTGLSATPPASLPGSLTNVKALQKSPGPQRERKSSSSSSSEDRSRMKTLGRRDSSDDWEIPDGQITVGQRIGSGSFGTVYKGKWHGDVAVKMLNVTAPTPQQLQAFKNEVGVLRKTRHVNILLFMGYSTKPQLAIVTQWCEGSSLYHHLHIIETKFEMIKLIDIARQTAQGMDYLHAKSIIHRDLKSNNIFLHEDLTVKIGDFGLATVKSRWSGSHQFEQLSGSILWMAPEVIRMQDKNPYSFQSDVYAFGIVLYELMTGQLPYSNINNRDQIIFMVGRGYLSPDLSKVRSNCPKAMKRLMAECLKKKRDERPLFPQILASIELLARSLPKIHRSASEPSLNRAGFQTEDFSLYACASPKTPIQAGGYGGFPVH
# Chain of Epidermal growth factor receptor (P00533 whole entry, the tested form may be a part): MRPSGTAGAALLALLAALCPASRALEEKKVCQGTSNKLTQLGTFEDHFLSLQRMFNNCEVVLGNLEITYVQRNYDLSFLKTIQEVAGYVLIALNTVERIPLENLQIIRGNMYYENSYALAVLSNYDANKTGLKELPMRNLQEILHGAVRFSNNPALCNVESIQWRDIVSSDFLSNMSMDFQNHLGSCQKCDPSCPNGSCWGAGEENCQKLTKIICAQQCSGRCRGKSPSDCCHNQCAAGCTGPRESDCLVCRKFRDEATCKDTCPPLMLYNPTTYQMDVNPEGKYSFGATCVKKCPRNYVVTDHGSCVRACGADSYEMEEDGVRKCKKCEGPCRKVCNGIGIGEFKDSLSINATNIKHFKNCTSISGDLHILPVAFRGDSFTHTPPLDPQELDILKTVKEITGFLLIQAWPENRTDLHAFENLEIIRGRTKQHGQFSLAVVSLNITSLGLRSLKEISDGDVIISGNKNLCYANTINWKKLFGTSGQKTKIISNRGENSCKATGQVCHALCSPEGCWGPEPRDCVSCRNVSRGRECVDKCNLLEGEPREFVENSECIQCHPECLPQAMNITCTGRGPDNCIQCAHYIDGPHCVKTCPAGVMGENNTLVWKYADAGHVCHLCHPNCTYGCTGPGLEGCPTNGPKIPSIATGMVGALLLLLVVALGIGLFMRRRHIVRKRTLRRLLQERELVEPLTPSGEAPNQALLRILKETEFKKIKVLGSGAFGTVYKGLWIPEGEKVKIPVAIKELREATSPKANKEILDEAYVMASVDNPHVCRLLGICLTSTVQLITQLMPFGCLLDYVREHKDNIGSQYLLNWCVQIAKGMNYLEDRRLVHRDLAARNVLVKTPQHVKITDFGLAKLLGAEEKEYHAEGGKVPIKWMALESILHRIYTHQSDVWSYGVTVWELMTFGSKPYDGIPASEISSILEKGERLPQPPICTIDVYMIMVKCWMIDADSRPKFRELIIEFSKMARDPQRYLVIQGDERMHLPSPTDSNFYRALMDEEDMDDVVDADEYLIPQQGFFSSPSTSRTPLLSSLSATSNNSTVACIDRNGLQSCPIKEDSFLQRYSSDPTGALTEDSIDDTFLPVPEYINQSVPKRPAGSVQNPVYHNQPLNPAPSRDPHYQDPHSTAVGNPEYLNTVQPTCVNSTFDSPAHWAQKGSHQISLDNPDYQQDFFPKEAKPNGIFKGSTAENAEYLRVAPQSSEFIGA
IC50 (A549) [nM],IC50 (HT-29) [nM],IC50 (PC-3) [nM],IC50 (MCF7 [7]) [nM],IC50 (MIA PaCa-2) [nM],IC50 [10] [nM],Activity (Tubulin (Homo sapiens)) [a.u.],IC50 [19] [nM],Structure (SMILES),inhibition (Mus musculus [1]),inhibition at 0.78 µg/mL [2] [%],Activity [5] [%],"viability at 96 h, 50 µM [6] [%]",inhibition at 3.13 µg/mL [8] [%],inhibition at 1.56 µg/mL [9] [%],inhibition at 6.25 µg/mL [12] [%],inhibition (Mus musculus [13]),inhibition (Mus musculus [14]),inhibition (Mus musculus [15]),inhibition (Mus musculus [16]),inhibition (Homo sapiens),further results
800,600,900,100,300,100,650,1480,Cc1c2cc(Cl)ccc2n2cc(Cc3ccccc3)[nH]c(=O)c12,Active,55,72.3,91,72,60,85,Active,Active,Active,Active,Dose-dependent effect,inhibition (Mus musculus [3]): Active; inhibition (Mus musculus [4]): Active; inhibition (Mus musculus [11]): Active; inhibition (Mus musculus [17]): Active; inhibition (Mus musculus [18]): Active; Activity [20]: 97.7%; inhibition at 12.5 µg/mL [21]: 91%; Activity [22]: 85.4%
–,–,–,–,–,–,–,–,Cc1ccc(S(=O)(=O)N2c3ccccc3CC2c2nc(Br)cnc2N)cc1 (stereo not drawn),–,–,–,–,–,–,–,–,–,–,–,–,GI50 (MCF7 [23]): 820 nM; GI50 (MDA-MB-435): 290 nM
1200,900,1300,900,1800,1000,930,3360,O=c1[nH]c(Cc2ccccc2)cn2c1cc1cc(Cl)ccc12,Active,47,69.4,89,64,55,72,Active,Active,Active,Active,Dose-dependent effect,inhibition (Mus musculus [24]): Active; inhibition (Mus musculus [25]): Active; IC50 [26]: 2400 nM; inhibition (Mus musculus [27]): Active; inhibition (Mus musculus [28]): Active; Activity [20]: 91.4%; inhibition at 12.5 µg/mL [21]: 81%; Activity [22]: 79.6%
